Reference: article PMC4113814, “Bioactive Cembrane Derivatives from the Indian Ocean Soft Coral, Sinularia kavarattiensis” (Marine Drugs, 2014)
Entries after “also recorded” stand apart in the source; their conditions may differ. Where two headings read alike, the source gives them in different places.

Key:
[1] = test system: cytokine release; assay: Inhibition of cytokine release in primary microglial cells, whole cytokine panel (summary statements); assay type: cell-based, Wistar rats; conditions: Rattus norvegicus
Description: (§1) Primary microglial cell cultures were prepared from brains of newborn Wistar rats. Ethics approval for the experiments was granted by the EBIOTEC Review Board (Valter Lombardi, Iván Carrera and Lucía Fernández-Novoa; Project Identification Code: Sinularia Project October 2013; approved 30 October 2013). The neocortex of one-day-old postnatal rats was aseptically dissected out, and the meninges and blood vessels were carefully removed. Following cutting in a medium containing 20% horse serum, the suspension was filtered through a […] and transferred as a single cell suspension to culture dishes, using 5.0 mL of medium per dish. […] After 72 h of incubation, cells were counted, and 2.5 mL of the supernatants were collected from each well and frozen at −40 °C for cytokine analyses. […]
The supernatants obtained from cell cultures were analyzed for TNF-α, IL-1β, IL-4, IL-6, IL-8, IL-10 and IL-18 using commercially available ELISA kits following the manufacturers’ instructions. […] The cytokine concentration was calculated from a standard curve of the corresponding recombinant cytokine.
The cytotoxicity of the compounds was measured by the colorimetric methyl thiazol tetrazolium (MTT) assay and scored as a percentage of the absorbance reduction of treated cultures versus untreated control cultures. […] The solutions were shaken for 20 min, and the absorbance was measured at 570 nm. […]

[2] = test system: primary microglial cells; assay: Microglial morphology cell count (ramified vs amoeboid) in LPS-treated cultures; assay type: cell-based, Wistar rats; conditions: 2.5 μg/mL (7.2 μM) and 5.0 μg/mL (14.4 μM), 72 h
Description: as §1, with “dish. The cultures were incubated at 37 °C in an atmosphere containing 5% CO2. The culture medium consisted of Minimum Essential Medium Eagle, supplemented with L-glutamine, amino acids, vitamins, penicillin, gentamicin, sodium bicarbonate and 20% heat-inactivated horse serum. The medium was changed twice a week. After 1 week, the concentration of horse serum was reduced to 10%. After sixteen days in culture, cells were treated with 1 μg/mL of lipopolysaccharide (LPS).” for “dish.”

## C=C(C)[C@@H]1C/C=C2\C(=O)O[C@@H](C[C@]3(C)CC(=O)[C@@H](CC(=O)C1)O3)[C@@H]2O [Compound 2, sinuleptolide]
[1]; converted from μg/mL, range over all cytokines
  IC50: 1.4 to 8.3 µM
[1]; range over IL-1β, IL-6, IL-8, IL-18, TNF-α, IL-4, IL-10, read-out: IC50-values for the inhibition of cytokine release, range over cytokines
  IC50: 0.5 to 2.9 µg/mL
[2]
  effect on ramified (RM) and amoeboid (AM) microglial cell density: significant RM and AM mean differences; also recorded: significantly reduce the number of activated amoeboid cells
